Laboratory results as given in patent US7825126B2 (The United States of America as represented by the …, priority 2004, dated 2010).
Read-outs that look alike come from different tables or passages of the source.

Columns and labels:
[1] = target: T1, human A1 receptors (Homo sapiens, UniProt P30542)
T1 construct: expressed in transfected cells
T1 sequence (P30542 1-326): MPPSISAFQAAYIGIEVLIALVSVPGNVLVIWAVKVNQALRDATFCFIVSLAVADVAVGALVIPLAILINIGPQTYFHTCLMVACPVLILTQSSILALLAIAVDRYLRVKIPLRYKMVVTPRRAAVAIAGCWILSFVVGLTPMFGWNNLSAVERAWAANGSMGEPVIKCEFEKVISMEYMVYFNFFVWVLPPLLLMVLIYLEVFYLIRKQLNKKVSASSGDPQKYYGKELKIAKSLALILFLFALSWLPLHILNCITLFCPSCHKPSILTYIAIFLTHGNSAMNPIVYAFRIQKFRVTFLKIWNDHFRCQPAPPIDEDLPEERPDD

[2] = target: T2, human A2B adenosine receptor (hA2BAR) (Homo sapiens, UniProt P29275); details: data from literature (footnotes c, f, h); cited from earlier work
T2 sequence (P29275 1-332): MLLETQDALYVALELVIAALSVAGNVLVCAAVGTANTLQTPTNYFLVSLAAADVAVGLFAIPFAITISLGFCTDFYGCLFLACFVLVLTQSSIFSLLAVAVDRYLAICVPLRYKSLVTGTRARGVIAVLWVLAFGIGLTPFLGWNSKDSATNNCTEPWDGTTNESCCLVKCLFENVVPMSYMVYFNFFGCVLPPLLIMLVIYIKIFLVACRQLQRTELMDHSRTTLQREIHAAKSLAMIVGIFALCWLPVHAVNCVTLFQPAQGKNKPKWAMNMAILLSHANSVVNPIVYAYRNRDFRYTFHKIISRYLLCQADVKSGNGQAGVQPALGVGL

[3] = target: T3, rat A3 adenosine receptor (Rattus norvegicus, UniProt P28647)
T3 construct: expressed in transfected cells; host or cells: CHO cells
T3 sequence (P28647 1-320): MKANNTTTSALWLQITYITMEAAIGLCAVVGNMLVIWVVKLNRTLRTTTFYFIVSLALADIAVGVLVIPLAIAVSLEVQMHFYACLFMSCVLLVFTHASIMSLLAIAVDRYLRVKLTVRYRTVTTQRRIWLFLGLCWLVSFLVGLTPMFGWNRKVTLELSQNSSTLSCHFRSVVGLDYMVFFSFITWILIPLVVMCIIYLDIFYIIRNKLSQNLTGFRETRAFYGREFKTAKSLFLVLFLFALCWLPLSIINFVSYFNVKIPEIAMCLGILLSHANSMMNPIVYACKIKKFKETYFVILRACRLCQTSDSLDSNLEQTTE

[4] = target: T4, human A3 adenosine receptor (Homo sapiens, UniProt P0DMS8); design: expressed in transfected cells; host or cells: CHO cells; details: relative to 10 μM Cl-IB-MECA, data from literature (footnotes c, d, e, f); cited from earlier work
T4 sequence (P0DMS8 1-318): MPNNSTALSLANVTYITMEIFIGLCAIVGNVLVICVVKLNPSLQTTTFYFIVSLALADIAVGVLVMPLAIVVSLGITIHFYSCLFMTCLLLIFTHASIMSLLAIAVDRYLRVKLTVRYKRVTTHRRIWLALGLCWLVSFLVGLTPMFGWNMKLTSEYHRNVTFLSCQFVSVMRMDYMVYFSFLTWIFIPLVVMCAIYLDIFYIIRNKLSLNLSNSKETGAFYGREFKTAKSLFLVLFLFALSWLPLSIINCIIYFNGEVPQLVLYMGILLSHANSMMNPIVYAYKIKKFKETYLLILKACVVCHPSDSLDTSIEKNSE

[5] = target: T3, rat A3 adenosine receptor; assay: Binding at rat A3 adenosine receptor ([125I]I-AB-MECA, CHO cell membranes); details: rat A3 AR in CHO cells; unit nM printed in b194 only; read-out: Ki(rA3AR)
[6] = target: T5, human A2A receptors (Homo sapiens, UniProt P29274)
T5 construct: expressed in transfected cells

[7] = target: T4, human A3 adenosine receptor; design: expressed in transfected cells; host or cells: CHO cells; details: data from literature (footnotes c, d, e, f); read-out: Ki(hA3AR); cited from earlier work
[8] = target: T1, human A1 receptors; assay: Binding at human A1 adenosine receptor ([3H]R-PIA, CHO cell membranes); details: mean ± s.e.m., n = 3-5, read-out: Ki(hA1AR)
[9] = target: T5, human A2A receptors; assay: Binding at human A2A adenosine receptor ([3H]CGS21680, HEK-293 cell membranes); details: [3H]CGS 21680; for Ki: mean ± s.e.m., n = 3-5, read-out: Ki(hA2AAR)
[10] = target: T4, human A3 adenosine receptor; assay: Cyclic AMP accumulation assay (inhibition of forskolin-stimulated cAMP), CHO cells expressing human A3 adenosine receptor; details: 10 μM, relative to 10 μM Cl-IB-MECA
[11] = target: T2, human A2B adenosine receptor (hA2BAR); assay: Activation of human A2B adenosine receptor at 10 μM; assay type: cell-based; details: CHO cells
[12] = target: T4, human A3 adenosine receptor; assay: Binding at human A3 adenosine receptor ([125I]I-AB-MECA, CHO cell membranes); design: expressed in transfected cells; host or cells: CHO cells; details: for Ki: [125I]I-AB-MECA, mean ± s.e.m., n = 3-5, read-out: Ki(hA3AR)
[13] = data from literature (footnotes c, d, f, g); read-out: Ki(hA1AR); cited from earlier work
[14] = rat A3 AR; data from literature (footnotes c, d, f, i); unit nM printed in b194 only; read-out: Ki(rA3AR); cited from earlier work
[15] = read-out: Ki(hA1AR); data from literature (footnotes c, d, f, g); cited from earlier work
[16] = 10 μM; data from Ohno et al. (footnote c); cited from earlier work
[17] = read-out: Ki(hA2AAR); data from literature (footnotes c, d, f, g); cited from earlier work

T5 sequence (P29274 whole entry): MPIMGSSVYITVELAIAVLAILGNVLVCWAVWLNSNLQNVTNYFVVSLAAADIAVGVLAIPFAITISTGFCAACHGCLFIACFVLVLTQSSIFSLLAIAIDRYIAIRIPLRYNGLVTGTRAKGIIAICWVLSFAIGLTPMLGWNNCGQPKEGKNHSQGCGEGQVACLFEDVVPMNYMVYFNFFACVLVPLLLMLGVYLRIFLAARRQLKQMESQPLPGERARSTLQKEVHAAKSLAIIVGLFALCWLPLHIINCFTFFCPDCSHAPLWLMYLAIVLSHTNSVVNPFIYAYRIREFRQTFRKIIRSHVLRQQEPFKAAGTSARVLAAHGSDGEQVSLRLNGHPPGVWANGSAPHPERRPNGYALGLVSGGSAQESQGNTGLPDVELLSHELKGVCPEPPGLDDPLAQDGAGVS

Ki [5] [nM] | Structure (SMILES) | % Activation (hA2BAR) at 10 μM [2] [%] | Ki [3, 14] [nM] | % Activation (hA3AR) at 10 μM [4] | Ki [1, 15] [nM] | Ki [7] [nM] | Ki [8] [nM] | also measured
 | OCC1OC(n2cnc3c(NCc4cccc(I)c4)ncnc32)C(O)C1O (centres unmarked) [Compound 1a] | 58 | 9.5 ± 1.4 | 46 ± 8% |  |  |  | Ki [1, 13]: 7.4 ± 1.7 nM
 | OCC1OC(n2cnc3c(NCc4cccc(I)c4)nc(Cl)nc32)C(O)C1O (centres unmarked) [Compound 1b] | 16 |  | 0% | 17 ± 2 |  |  | Ki ([3]; read-out: Ki(rA3AR); rat A3 AR; data from literature (footnotes c, d, f, i); unit nM printed in b194 only; cited from earlier work): 2.7 ± 1.2 nM
1.1 ± 0.1 | CNC(=O)[C@@]12C[C@@H]1[C@@H](n1cnc3c(NCc4cccc(I)c4)nc(Cl)nc31)[C@H](O)[C@@H]2O [Compound 5, (1′S,2′R,3′S,4′R,5′S)-[4′-(2-chloro-6-{[(3-iodophenyl)methyl]amino}purin-9-yl)-2′,3′-dihydroxybicyclo[3.1.0]hexyl]-N-methylcarboxamide] |  |  | 100^e % |  |  |  | 
 | CNc1ncnc2c1ncn2C1OC(CO)C(O)C1O (centres unmarked) [Compound 6] | 16 | 6400 ± 1600 |  | 6000 ± 2000 | 9.3 ± 0.4 |  | % displ. at 10 μM (hA2AAR) [6, 16]: 17%
 | CNc1nc(N)nc2c1ncn2C1OC(CO)C(O)C1O (centres unmarked) [Compound 7] | 11 | > 10000 | 98 ± 3% | 480 ± 20 | 39 ± 2 |  | % displ. at 10 μM (hA2AAR) [6, 16]: 15%
 | OCC1OC(n2cnc3c(NC4CC4c4ccccc4)ncnc32)C(O)C1O (centres unmarked) [Compound 10] | 26 | 400 ± 30 | 101 ± 5% |  |  |  | Ki ([6]; data from literature (footnotes c, d, f, g); read-out: Ki(hA2AAR); cited from earlier work): 2500 ± 700 nM
 | Cc1ccccc1CNc1ncnc2c1ncn2C1OC(CO)C(O)C1O (centres unmarked) [Compound 11] |  | 38 ± 15 | 100 ± 3% | 39 ± 8 | 47 ± 11 |  | Ki [6, 17]: 760 ± 110 nM
 | OCC1OC(n2cnc3c(NCc4cccnc4)ncnc32)C(O)C1O (centres unmarked) [Compound 12] |  | 290 ± 70 | 100 ± 6% |  | 4.5 ± 1.1 |  | Ki [1, 13]: 42 ± 4 nM; Ki [6, 17]: 2300 ± 120 nM
 | OCC1OC(n2cnc3c(NCC(c4ccccc4)c4ccccc4)ncnc32)C(O)C1O (centres unmarked) [Compound 13] | 70 | 540 ± 200 | 0% |  |  |  | 
160 ± 30 | CNC(=O)[C@@]12C[C@@H]1[C@@H](n1cnc3c(NC)nc(Cl)nc31)[C@H](O)[C@@H]2O [Compound 14] |  |  |  |  |  | 2100 ± 1700 | % displ. at 10 μM (hA2AAR) [9]: 6%; % Activation (hA3AR) at 10 μM [10]: 104 ± 7%
11 ± 3 | CNC(=O)C12CC1C(n1cnc3c(NCc4cc(Cl)ccc4OCc4ccccc4)nc(Cl)nc31)C(O)C2O (stereo not drawn) [Compound 24, (1′S,2′R,3′S,4′S,5′S)-4′-[6-(5-Chloro-2-benzyloxy-benzylamino)-2-chloro-purin-9-yl]-2′,3′-dihydroxy-bicyclo[3.1.0]hexane-1′-carboxylic acid methylamide] |  |  |  |  |  | 1200 ± 200 | Ki [9]: 850 ± 160 nM; % Activation (hA2BAR) at 10 μM [11]: 49%; Ki [12]: 5.2 ± 1.3 nM; % Activation (hA3AR) at 10 μM [10]: 110 ± 10%

Structure (SMILES) | Ki [5] [nM] | % Activation (hA2BAR) at 10 μM [2] [%] | Ki [3, 14] [nM] | % Activation (hA3AR) at 10 μM [4] | Ki [1, 15] [nM] | Ki [7] [nM] | Ki [8] [nM] | also measured
CNC(=O)[C@@]12C[C@@H]1[C@H](n1cnc3c(NCc4cccc(Cl)c4)nc(Cl)nc31)[C@H](O)[C@@H]2O [Compound 18, (1′S,2′R,3′S,4′S,5′S)-4′-[6-(3-Chlorobenzylamino)-2-chloro-purin-9-yl]-2′,3′-dihydroxy-bicyclo[3.1.0]hexane-1′-carboxylic acid methylamide] | 1 ± 0.1 |  |  |  |  |  | 260 ± 60 | Ki [9]: 2300 ± 100 nM; % Activation (hA2BAR) at 10 μM [11]: 38%
CNC(=O)C12CC1C(n1cnc3c(NCc4cc(OC)ccc4OC)nc(Cl)nc31)C(O)C2O (stereo not drawn) [Compound 26, (1′S,2′R,3′S,4′S,5′S)-4′-[6-(2,5-Dimethoxy-benzylamino)-2-chloro-purin-9-yl]-2′,3′-dihydroxy-bicyclo[3.1.0]hexane-1′-carboxylic acid methylamide] | 0.87 ± 0.24 |  |  |  |  |  | 1600 ± 200 | % displ. at 10 μM (hA2AAR) [9]: 52%; % Activation (hA2BAR) at 10 μM [11]: 0%; Ki [12]: 1.4 ± 0.2 nM; Selectivity for the human A3 adenosine receptor in comparison to the A1 adenosine receptor ([12]; ratio of Ki hA1 / hA3): 1200 fold; % Activation (hA3AR) at 10 μM [10]: 107 ± 10%
